Experiment [1] concerns Aβ 40 in conditioned medium of cells stably expressing Amyloid Precursor Protein (APP). Description: In vitro BACE cell-based assay (Aβ 40 sandwich ELISA). The following applies: HEK cell, average IC50. A digest of the protocol: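 Aβ40 in conditioned medium measured by pAb40/biotin-6E10 sandwich ELISA with time-resolved europium fluorescence, after 24 h exposure of stable APP cells to compounds (10-point series starting 100 μM or 10 μM; 0.1% DMSO). IC50 fitted from percent of control against concentration.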
(An ELISA detects its analyte on a solid surface through an enzyme-linked reagent.)

Another experiment concerns the target Cathepsin D (Cat D) (Homo sapiens, UniProt P07339). In words: In vitro enzymatic Cathepsin D (Cat D) FRET assay. The experiment is classed as biochemical. A digest of the protocol: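 FRET peptide substrate (20 nM) is cleaved by CHO-derived recombinant enzyme (9 nM) for 1 h after a 1 h inhibitor pre-incubation, at pH 3.5 in citrate buffer with 5 mM CHAPS and 10% DMSO. Tris addition ends the reaction; fluorescence measured at 500 nm excitation, 580 nm emission.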

For experiment [2], the target named is Beta Secretase enzyme (BACE) (Homo sapiens, UniProt P56817). Description: In vitro enzymatic BACE FRET assay. As to conditions: average IC50; read-out: BACE1 FRET assay IC50. The experiment is classed as biochemical. A digest of the protocol: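 Cleavage of a quenched 50 nM FRET peptide substrate, read as fluorescence (excitation 488 nm, […]) after 1 h and Tris quench to neutrality. Buffer: 0.05 M acetate pH 4.2 with 10% DMSO and 100 uM genapol. Inhibitor dilutions were pre-incubated 1 h with 0.2 nM enzyme.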
Sequence of Beta Secretase enzyme (BACE) (P56817 46-501): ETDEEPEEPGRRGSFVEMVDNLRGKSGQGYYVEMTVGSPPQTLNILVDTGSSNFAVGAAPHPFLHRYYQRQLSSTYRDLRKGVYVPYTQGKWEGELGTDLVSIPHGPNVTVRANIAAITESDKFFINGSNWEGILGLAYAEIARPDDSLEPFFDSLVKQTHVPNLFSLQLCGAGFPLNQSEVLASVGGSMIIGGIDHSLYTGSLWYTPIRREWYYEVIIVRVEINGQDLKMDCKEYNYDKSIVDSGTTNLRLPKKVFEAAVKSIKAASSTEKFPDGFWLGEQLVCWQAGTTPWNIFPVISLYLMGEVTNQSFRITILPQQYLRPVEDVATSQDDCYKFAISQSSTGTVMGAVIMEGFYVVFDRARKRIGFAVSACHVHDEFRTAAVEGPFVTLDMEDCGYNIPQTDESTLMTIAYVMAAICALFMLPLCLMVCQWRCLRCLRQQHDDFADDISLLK

[3] abbreviates: text summary referring to data in Table 2.

Like-named read-outs stand apart in the source and are kept apart here.

Sequence of Cathepsin D (Cat D) (P07339 65-412, species assumed): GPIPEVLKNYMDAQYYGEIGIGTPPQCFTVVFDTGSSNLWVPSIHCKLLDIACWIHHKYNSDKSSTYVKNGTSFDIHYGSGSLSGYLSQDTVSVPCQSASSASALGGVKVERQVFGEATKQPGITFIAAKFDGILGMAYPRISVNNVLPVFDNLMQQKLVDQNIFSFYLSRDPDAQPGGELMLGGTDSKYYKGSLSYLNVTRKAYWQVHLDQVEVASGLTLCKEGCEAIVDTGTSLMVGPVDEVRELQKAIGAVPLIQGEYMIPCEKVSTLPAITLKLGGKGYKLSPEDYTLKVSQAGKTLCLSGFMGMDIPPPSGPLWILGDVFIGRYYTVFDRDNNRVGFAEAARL

`CC#CCOc1cnc(C(=O)Nc2ccc3c(c2)[C@@]2(C)N=C(N)C(C)(C)S(=O)(=O)[C@@H]2CCC3)cn1` [Example 50, N-((4aR,11bR)-2-amino-3,3,11b-trimethyl-4,4-dioxido-3,4a,5,6,7,11b-hexahydrobenzo[3,4]cyclohepta[1,2-b][1,4]thiazin-10-yl)-5-(2-butyn-1-yloxy)-2-pyrazinecarboxamide]: the IC50 in experiment [1] (Homo sapiens, HEK293) is 0.0002 µM; at Cathepsin D (Cat D) (read-out: CatD IC50), 120 µM; in experiment [2], 0.0007 µM.

On to `CC#CCOc1cnc(C(=O)Nc2ccc3c(c2)[C@@]2(C)N=C(N)C(C)(C)S(=O)(=O)[C@@H]2C[C@H](C)O3)cn1` [Example 51, N-((4aR,6S,11bR)-2-amino-3,3,6,11b-tetramethyl-4,4-dioxido-4a,5,6,11b-tetrahydro-3H-[1]benzoxepino[4,5-b][1,4]thiazin-10-yl)-5-(2-butyn-1-yloxy)-2-pyrazinecarboxamide], for which the IC50 came out at 0.0004 µM in experiment [1] (Homo sapiens, HEK293); 461 µM on Cathepsin D (Cat D) (read-out: CatD IC50); 0.001 µM in experiment [2].

For `COc1cnc2c(Nc3ccc4c(c3)[C@@]3(C)N=C(N)C(C)(C)S(=O)(=O)[C@@H]3C[C@H](C)O4)ncc(F)c2c1` [Example 52, (4aR,6S,11bR)-N^~10^~-(5-fluoro-3-methoxy-1,7-naphthyridin-8-yl)-3,3,6,11b-tetramethyl-4a,5,6,11b-tetrahydro-3H-[1]benzoxepino[4,5-b][1,4]thiazine-2,10-diamine 4,4-dioxide], the IC50 in experiment [1] (Homo sapiens, HEK293) was 0.022 µM; at Cathepsin D (Cat D) (read-out: CatD IC50) it was 174 µM; in experiment [2], 0.014 µM.

`COc1cnc2c(Nc3ccc4c(c3)[C@@]3(C)N=C(N)C(C)(C)S(=O)(=O)[C@@H]3C[C@H](C)O4)nccc2n1` [Example 53, (4aR,6S,11bR)-N^~10^~-(2-methoxypyrido[3,4-b]pyrazin-5-yl)-3,3,6,11b-tetramethyl-4a,5,6,11b-tetrahydro-3H-[1]benzoxepino[4,5-b][1,4]thiazine-2,10-diamine 4,4-dioxide]: the IC50 in experiment [1] (Homo sapiens, HEK293) is 0.011 µM; at Cathepsin D (Cat D) (read-out: CatD IC50), 977 µM; at Cathepsin D (Cat D) (setting [3]) it was over 800 µM; in experiment [2] it was 0.032 µM.

Regarding `Cc1cc(C#N)cnc1C(=O)Nc1ccc2c(c1)[C@@]1(C)N=C(N)C(C)(C)S(=O)(=O)[C@@H]1C[C@H](C)O2` [Example 57, N-((4aR,6S,11bR)-2-amino-3,3,6,11b-tetramethyl-4,4-dioxido-4a,5,6,11b-tetrahydro-3H-[1]benzoxepino[4,5-b][1,4]thiazin-10-yl)-5-cyano-3-methyl-2-pyridinecarboxamide], the IC50 is 0.0007 µM in experiment [1] (Homo sapiens, HEK293); 1460 µM on Cathepsin D (Cat D) (read-out: CatD IC50); over 1200 µM on Cathepsin D (Cat D) (setting [3]); 0.002 µM in experiment [2].

With `Cc1cc(Cl)cnc1C(=O)Nc1cnc2c(c1)[C@@]1(C)N=C(N)C3(CCC3)S(=O)(=O)[C@H]1CCO2` [Example 58, N-((4a′S,11b′R)-2′-amino-11b′-methyl-4′,4′-dioxido-4a′,5′,6′,11b′-tetrahydrospiro[cyclobutane-1,3′-pyrido[3′,2′:6,7]oxepino[4,5-b][1,4]thiazin]-10′-yl)-5-chloro-3-methyl-2-pyridinecarboxamide], the IC50 was 0.011 µM in experiment [1] (Homo sapiens, HEK293); 656 µM on Cathepsin D (Cat D) (read-out: CatD IC50); 0.014 µM in experiment [2].

In the case of `Cc1cc(Cl)cnc1C(=O)Nc1cnc2c(c1)[C@@]1(C)N=C(N)C3(CCC3)S(=O)(=O)[C@@H]1CCO2` [Example 59, N-((4a′R,11b′R)-2′-amino-11b′-methyl-4′,4′-dioxido-4a′,5′,6′,11b′-tetrahydrospiro[cyclobutane-1,3′-pyrido[3′,2′:6,7]oxepino[4,5-b][1,4]thiazin]-10′-yl)-5-chloro-3-methyl-2-pyridinecarboxamide], the IC50 is 0.057 µM in experiment [1] (Homo sapiens, HEK293); over 400 µM on Cathepsin D (Cat D) (read-out: CatD IC50); 0.05 µM in experiment [2].

`COc1cnc2c(Nc3cnc4c(c3)[C@@]3(C)N=C(N)C5(CCC5)S(=O)(=O)[C@@H]3CCO4)nccc2n1` [Example 60]: the IC50 in experiment [1] (Homo sapiens, HEK293) was 0.135 µM; on Cathepsin D (Cat D) (read-out: CatD IC50), over 400 µM; in experiment [2] it was 0.037 µM.

As for `C[C@]12N=C(N)C3(CCC3)S(=O)(=O)[C@@H]1CCOc1ncc(Nc3nccc4cc(Cl)cnc34)cc12` [Example 61], the IC50 in experiment [1] (Homo sapiens, HEK293) worked out at 0.125 µM; on Cathepsin D (Cat D) (read-out: CatD IC50), 680 µM; in experiment [2] it was 0.018 µM.

Turning to `Cc1cc(C#N)cnc1C(=O)Nc1cnc2c(c1)[C@@]1(C)N=C(N)C3(CCC3)S(=O)(=O)[C@@H]1CCO2` [Example 62, N-((4a′R,11b′R)-2′-amino-11b′-methyl-4′,4′-dioxido-4a′,5′,6′,11b′-tetrahydrospiro[cyclobutane-1,3′-pyrido[3′,2′:6,7]oxepino[4,5-b][1,4]thiazin]-10′-yl)-5-cyano-3-methyl-2-pyridinecarboxamide], the IC50 in experiment [1] (Homo sapiens, HEK293) was 0.06 µM; at Cathepsin D (Cat D) (read-out: CatD IC50) it was over 400 µM; in experiment [2], 0.015 µM.

Regarding `C[C@]12N=C(N)C3(CCC3)S(=O)(=O)[C@@H]1CCOc1ncc(NC(=O)c3ccc(C#N)cn3)cc12` [Example 63, N-((4a′R,11b′R)-2′-amino-1113′-methyl-4′,4′-dioxido-4a′,5′,6′,11b′-tetrahydrospiro[cyclobutane-1,3′-pyrido[3′,2′:6,7]oxepino[4,5-b][1,4]thiazin]-10′-yl)-5-cyano-2-pyridinecarboxamide], the IC50 in experiment [1] (Homo sapiens, HEK293) was 0.164 µM; on Cathepsin D (Cat D) (read-out: CatD IC50), 868 µM; at Cathepsin D (Cat D) (setting [3]), over 800 µM; in experiment [2], 0.036 µM.

Turning to `COc1cnc(C(=O)Nc2cnc3c(c2)[C@@]2(C)N=C(N)C4(CCC4)S(=O)(=O)[C@@H]2CCO3)c(C)c1` [Example 64, N-((4a′R,11b′R)-2′-amino-1113′-methyl-4′,4′-dioxido-4a′,5′,6′,11b′-tetrahydrospiro[cyclobutane-1,3′-pyrido[3′,2′:6,7]oxepino[4,5-b][1,4]thiazin]-10′-yl)-5-methoxy-3-methyl-2-pyridinecarboxamide], the IC50 is 0.184 µM in experiment [1], over 400 µM on Cathepsin D (Cat D) (read-out: CatD IC50) and 0.059 µM in experiment [2].

As to `Cc1cc(Cl)cnc1C(=O)Nc1ccc2c(c1)[C@@]1(C)N=C(N)C(C)(C)S(=O)(=O)[C@]1(F)CCO2` [Example 65, N-((4aR,11bR)-2-amino-4a-fluoro-3,3,11b-trimethyl-4,4-dioxido-4a,5,6,11b-tetrahydro-3H-[1]benzoxepino[4,5-b][1,4]thiazin-10-yl)-5-chloro-3-methyl-2-pyridinecarboxamide], the IC50 was 0.074 µM in experiment [1] (Homo sapiens, HEK293); 324 µM on Cathepsin D (Cat D) (read-out: CatD IC50); 0.006 µM in experiment [2].

With `CC1(C)C(N)=N[C@]2(C)c3cc(NC(=O)c4ccc(Cl)cn4)ccc3OCC[C@@]2(F)S1(=O)=O` [Example 66, N-((4aR,11bR)-2-amino-4a-fluoro-3,3,11b-trimethyl-4,4-dioxido-4a,5,6,11b-tetrahydro-3H-[1]benzoxepino[4,5-b][1,4]thiazin-10-yl)-5-chloro-2-pyridinecarboxamide], the IC50 amounted to 0.089 µM in experiment [1] (Homo sapiens, HEK293); 269 µM on Cathepsin D (Cat D) (read-out: CatD IC50); 0.008 µM in experiment [2].

As to `COc1cnc(C(=O)Nc2ccc3c(c2)[C@@]2(C)N=C(N)C(C)(C)S(=O)(=O)[C@]2(F)CCO3)cn1` [Example 67, N-((4aR,11bR)-2-amino-4a-fluoro-3,3,11b-trimethyl-4,4-dioxido-4a,5,6,11b-tetrahydro-3H-[1]benzoxepino[4,5-b][1,4]thiazin-10-yl)-5-methoxy-2-pyrazinecarboxamide], the IC50 in experiment [1] (Homo sapiens, HEK293) was 0.115 µM; on Cathepsin D (Cat D) (read-out: CatD IC50) it was 2920 µM; on Cathepsin D (Cat D) (setting [3]), over 1200 µM; in experiment [2] it was 0.022 µM.

With `COc1ccc(C(=O)Nc2ccc3c(c2)[C@@]2(C)N=C(N)C(C)(C)S(=O)(=O)[C@@H]2C[C@H](C)O3)nc1` [Example 72, N-((4aR,6S,11bR)-2-amino-3,3,6,11b-tetramethyl-4,4-dioxido-4a,5,6,11b-tetrahydro-3H-[1]benzoxepino[4,5-b][1,4]thiazin-10-yl)-5-methoxy-2-pyridinecarboxamide], the IC50 in experiment [1] (Homo sapiens, HEK293) is 0.005 µM; at Cathepsin D (Cat D) (read-out: CatD IC50), 1390 µM; on Cathepsin D (Cat D) (setting [3]), over 1200 µM; in experiment [2], 0.011 µM.

For `C[C@H]1C[C@@H]2[C@](C)(N=C(N)C(C)(C)S2(=O)=O)c2cc(NC(=O)c3ncc(C(F)(F)F)cc3Cl)ccc2O1` [Example 73, N-((4aR,6S,11bR)-2-amino-3,3,6,11b-tetramethyl-4,4-dioxido-4a,5,6,11b-tetrahydro-3H-[1]benzoxepino[4,5-b][1,4]thiazin-10-yl)-3-chloro-5-(trifluoromethyl)-2-pyridinecarboxamide], the IC50 in experiment [1] (Homo sapiens, HEK293) was 0.004 µM; at Cathepsin D (Cat D) (read-out: CatD IC50), 1390 µM; on Cathepsin D (Cat D) (setting [3]), over 1200 µM; in experiment [2] it was 0.011 µM.

Turning to `C[C@H]1C[C@@H]2[C@](C)(N=C(N)C(C)(C)S2(=O)=O)c2cc(NC(=O)c3cnc(OCC(F)(F)F)cn3)ccc2O1` [Example 74, N-((4aR,6S,11bR)-2-amino-3,3,6,11b-tetramethyl-4,4-dioxido-4a,5,6,11b-tetrahydro-3H-[1]benzoxepino[4,5-b][1,4]thiazin-10-yl)-5-(2,2,2-trifluoroethoxy)-2-pyrazinecarboxamide], the IC50 in experiment [1] (Homo sapiens, HEK293) came to 0.007 µM; on Cathepsin D (Cat D) (read-out: CatD IC50), 871 µM; in experiment [2], 0.003 µM.

In general, IC50 refers to the concentration that gives 50% inhibition.
